Columns and labels:
LNCaP-K14 cells = assay type: cell-based, human; conditions: for cytotoxicity: 10 μM, 96 h time period; for effect on proliferation (cell confluency): Figure S27
From the text: Prior to the establishment of bone metastases circulating PCa cells must first enter the bone microenvironment by migrating across the sinusoidal wall.[54] We have previously shown that increased KLK14 activity drives PCa cell migration and colonization of mineralized bone matrices.[15] However, the specific contributions of the KLK activome (KLK2, KLK3, and KLK14) toward PCa cell migration are yet to be elucidated. […] We then assessed the migratory capacity of LNCaP-K14 cells using a transwell assay (see Figure S28 for standard curve).
proliferation of LNCaP-K14 cells. Cell confluency was monitored by real-time imaging using
an Incucyte S3 system (Essen Bioscience).
(1 picture or pasted object on this page, not shown here)

KLK2, KLK3, and KLK14 = test: Streptavidin blotting of LNCaP-K14 conditioned media after treatment with biotinylated ABPs; assay type: biochemical, human; conditions: CM of LNCaP-K14 cells, 10 nM DHT and 200 nM Dox; 1 h; concentration-dependent labeling
Experimental: With ABPs for KLK2, KLK3, and KLK14 in hand, we next addressed selective readouts of KLK activities in a complex biological system. Compounds 20, 31, and 39 were incubated with CM obtained from LNCaP-K14 cells, in which KLK14 expression has been placed under the control of a doxycycline-inducible promoter, stimulated with 10 nM DHT and 200 nM doxycycline (Dox).[15] […] In line with previous reports KLK14 appears as a double band due to protein glycosylation.[15],[39] Selective covalent modification of KLK2, KLK3, and KLK14 by 31, 20, and 39, respectively, was confirmed by streptavidin enrichment and immunoblotting (Figures S19 and S20). In the following experiments, biotinylated ABPs (bABPs) 31, 20, and 39 are named KLK2_bABP, KLK3_bABP, and KLK14_bABP, respectively.
FBS) were seeded onto the bone matrix. As a control the same number of LNCaP cells were seeded in a T175 plate lacking osteoblast cells. After 12 h, the media was aspirated, and the co-culture was incubated with serum-free RPMI media (0 % FBS and phenol red-free) for a further 48 h. After 48 h the media was collected, passed through a 0.2 μm syringe filter and stored at – 80 °C until needed. Indirect Co-culture – After 6 weeks, the media was aspirated, and the differentiated osteoblasts were incubated with serum-free RPMI media (0 % FBS and phenol red-free) for a further 48 h. After 48 h the media was collected, passed through a 0.2 μm syringe filter and then added to a T175 plate of LNCaP cells grown to 80 % confluency and hormone starved for 24 h in RPMI media supplemented with 5 % charcoal stripped FBS. […]
The protein concentration of the homogenate was measured using the DC Protein Assay (BioRad), following the manufacturer’s instructions. […]
Preparation of conditioned media: Samples of conditioned media were removed from – 80 °C storage and concentrated by centrifugation (3000 g, 10 °C) in a 3 KDa molecular weight cut-off spin filter (Amicon) for approximately 3 h. […] The protein concentration of the media was measured using the DC Protein Assay (BioRad), following the manufacturer’s instructions. […]

Row | Structure (SMILES) | cytotoxicity (LNCaP-K14 cells) | effect on proliferation (cell confluency) (LNCaP-K14 cells) | targets labeled (probe selectivity) (KLK2, KLK3, and KLK14)
1 | CCC[C@H](NC(=O)[C@H](CCC(N)=O)NC(=O)[C@H](CC(N)=O)NC(=O)CCCCCNC(=O)CCCC[C@@H]1SC[C@@H]2NC(=O)N[C@@H]21)C(=O)NC(c1ccc(C(N)=O)cc1)P(=O)(Oc1ccccc1)Oc1ccccc1 (stereo partly drawn) [compound 20] | no cytotoxicity | no significant effect | single target
2 | CC(C)(C)C(NC(=O)CCCCCNC(=O)CCCCC1SCC2NC(=O)NC21)C(=O)NC(CCN)C(=O)NC(Cc1ccc(O)cc1)C(=O)NC(c1ccc(NC(=N)N)cc1)P(=O)(Oc1ccccc1)Oc1ccccc1 (stereo not drawn) [compound 31, Tle-Dab-Tyr-Arg] | no cytotoxicity | no significant effect | single target
3 | CCC(NC(=O)C(CCN)NC(=O)C(Cc1ccc2ccccc2c1)NC(=O)CCCCCNC(=O)CCCCC1SCC2NC(=O)NC21)C(=O)NC(c1ccc(NC(=N)N)cc1)P(=O)(Oc1ccccc1)Oc1ccccc1 (stereo not drawn) [compound 39, 2Nal-Dab-Abu-Arg] | no cytotoxicity | no significant effect | single target
